Measurements published in patent US8440830B2, “Tetrahydro-fused pyridines as histone deacetylase inhibitors” (4SC AG, priority 2007, dated 2013).
Where two headings read alike, the source gives them in different places.

Legend:
HDACs 4 to 8 = conditions: read-out: IC50 HDACs 4 to 8; Kalita et al. 2005; cited from earlier work
HDAC11 = target: T1, HDAC11 (Homo sapiens, UniProt Q96DB2); conditions: Kalita et al. 2005; one range for HDAC1, 2, 3 and 11; cited from earlier work
T1 sequence (Q96DB2 1-347): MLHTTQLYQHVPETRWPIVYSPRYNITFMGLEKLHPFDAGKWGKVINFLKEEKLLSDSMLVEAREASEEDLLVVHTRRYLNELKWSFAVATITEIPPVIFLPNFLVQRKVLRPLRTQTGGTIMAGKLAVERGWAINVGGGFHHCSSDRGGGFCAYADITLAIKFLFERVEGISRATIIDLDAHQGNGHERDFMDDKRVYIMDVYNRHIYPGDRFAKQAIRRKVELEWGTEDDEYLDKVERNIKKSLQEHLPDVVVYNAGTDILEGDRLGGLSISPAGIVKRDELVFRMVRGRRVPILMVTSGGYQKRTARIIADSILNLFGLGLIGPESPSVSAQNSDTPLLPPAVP

[1] = system: acute human T-lymphoblastic leukemia cell line CCRF-CEM; conditions: about 10.000 unique accession numbers, Peart et al. 2005; cited from earlier work
A549 NSCLC cells [2] = assay: Cell cycle analysis by flow cytometry; type: cell-based, human; conditions: A549, 24 h treatment
Procedure: A549 NSCLC cells (ATTC CCL-185) are cultivated in DMEM with high glucose (supplemented with 10% FBS) at 5% CO2 and 37° C. in a humidified atmosphere under standard cell culture conditions. 24 h before compound treatment, cells are seeded at 5×10^4 cells/ml (=5×10^5 cells/10 cm cell culture dish) to allow logarithmic proliferation during the experiment. After 24 h, cells were treated with test compound or 0.5 vol % DMSO as a control. After 24 h and 48 h treatment, the culture medium is collected and detached, floating cells are collected by short centrifugation (5 min at 1200 rpm). Attached cells are washed once with 5 ml PBS, detached by treatment with 3 ml trypsin/EDTA solution (short incubation for 3-5 min) and—together with detached, floating cells—transferred into 15 ml Falcon tubes. The cell culture dish is washed with 10 ml DMEM to collect all remaining cells. After centrifugation for 5 min at 1200 rpm at room temperature, the supernatant is discarded and the cell pellet washed twice with 10 ml PBS. The supernatant is discarded, the cells resuspended in 4 ml ice-cold fixation solution (70 vol % ethanol, 30 vol % H2O; stored at −20° C.) and stored at −20° C. overnight. Next, 10 ml PBS (4° C.) is added to the cells, before centrifugation for 5 min at 1200 rpm (4° C.). The supernatant is discarded, the cell pellet washed once with 10 ml PBS (4° C.) and the cell pellet finally resuspended in about 1 ml staining solution (10 μg/ml RNAse A, 10 μg/ml propidiumiodide in PBS, final volume dependent on cell number). After incubation for 30 min at room temperature in the dark, cells are stored on ice and analyzed using the Becton Dickinson FACS Canto device. Analysis is done at an excitation of λ=488 nm with emission set as λ=600 nm.
Data analysis: Cells are analyzed according to size, granularity and propidiumiodide intensity. Size and granularity of cells are determined by measurement of forward scatter (FSC) and side scatter (SSC) of the λ=488 nm excitation light, respectively. To discriminate cells with 4N DNA content from cell doublets (two attached cells with 2N DNA content each), the ratio between the area under the propidiumiodide peak (PE-A) and the height of the propidiumiodide peak (PE-H) for each cell is determined. Cell doublets need more time to pass through the laser beam, which causes a broadening of the propidiumiodide peak and an increase of the ratio PE-A/PE-H. Using this analysis, cells in 4N and cell doublets appear as distinct clouds in a scatter plot and are excluded from the analysis. Thus, the area under the propidiumiodide peak at λ=600 nm (PE-A) is a measure for the DNA content of the cells. PE-A is blotted against the measured cell number in a histogram in order to determine the percentage of analyzed cells in an individual stage of the cell cycle.

[3] = system: histone H3 hyperacetylation in HeLa cervical carcinoma cells; assay: Cellular histone H3 hyperacetylation assay; type: cell-based; conditions: Homo sapiens, 24 h treatment
Excerpt: To assess the cellular efficacy of a histone deacetylase inhibitor in vitro, an assay is set up in black clear-bottom 96-well plates and optimized for use on the Cellomics “ArrayScan II” platform for a quantitative calculation of histone acetylation. The protocol uses a polyclonal rabbit antibody, specifically binding to acetylated lysine 1-20 (including K 9 and K14) of human histone H3 on fixed cells with an Alexa Fluor 488 labeled goat anti rabbit-IgG used for counterstaining 5×10^3 HeLa cervical carcinoma cells/well (ATCC CCL-2) in 200 μl Dulbecco's modified Eagle's medium (DMEM) containing 10% fetal calf serum are seeded at day 1 in Packard view plates and incubated for 24 h under standard cell culture conditions. On day 2, 1 μl test compound (200× final concentration) is added and incubation continued for further 24 h. On day 3, the culture medium is discarded and attached cells fixed for 15 min at room temperature by addition of 100 μl fixation buffer (3.7% v:v formaldehyde in phosphate buffered saline/PBS). After discarding the fixation buffer and one wash with blocking solution (1% BSA, 0.3% Tween 20 in PBS), cells are permeabilized at room temperature by addition of 100 μl /well permeabilization buffer (30.8 mM NaCl, 0.54 mM Na2HPO4, 0.31 mM KH2PO4, 0.1% v:v Triton X-100) for 15 min at room temperature. After discarding the permeabilization buffer and washing twice with 100 μl/well blocking solution at room temperature, the 1st antibody (anti-K1-20 histone H3 antibody, Calbiochem No. 382158) in blocking solution (50 μl/well) is added. After incubation for 1 h at room temperature, the wells are washed twice at room temperature with 100 μl/well blocking solution before addition of the 2nd antibody (goat-anti-rabbit Alexa Fluor 488; MoBiTec No. A -11008) in blocking solution (50 μl well). After further incubation for 1 h at room temperature, wells are washed twice with 100 μl/well blocking solution at room temperature. Finally, 100 μl/well PBS are added and image analysis performed on the Cellomics “ArrayScan II” platform. For EC50 determination, the percentage of positive cells showing nuclear fluorescence is determined and EC50 calculation done from concentration-effect curves by means of non-linear regression. For calibration, a positive (reference HDAC inhibitors like SAHA or NVP LBH-589) and a negative control were included.

A549 NSCLC cells [4] = assay: Cellular cytotoxicity assay (Alamar Blue), A549; type: cell-based; conditions: Homo sapiens, 72 h, upper end given as ≧100, read-out: IC50 (μM), cytotoxicity towards A549 NSCLC cells
Outline: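 Cells were dosed 24 h after seeding with semi-log compound dilutions in quadruplicate, then incubated 72 h at 37 °C, 5% CO2. Viability read by Resazurin reduction (4 h, fluorescence 544/590 nm) relative to untreated 0.5% DMSO controls; IC50 by non-linear regression.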

[5] = system: RKO colon carcinoma cells with conditional p21^waf1 expression; assay: Cell cycle dependent cytotoxicity, RKO exop21 cell system; type: cell-based; conditions: Homo sapiens, 72 h
Procedure: (§1) The anti-proliferative activity of the histone deacetylase inhibitory compounds as described herein, is evaluated using the following cell lines: HeLa and HeLa-KB (cervical carcinoma), H460 (non small cell lung cancer), A549 (non-small cell lung cancer), MCF7 (breast carcinoma), MCF10A (normal, non tumorigenic breast epithelial), MDA-MB468 (breast carcinoma), MDA-MB435 (breast carcinoma), MDA-MB231 (breast carcinoma), SKBR-3 (breast carcinoma), SKOV-3 (ovarial carcinoma), A-2780 (ovarial carcinoma), RKO (colon carcinoma), HCT-15 (colon carcinoma), HCT-116 (colon carcinoma), PC3 (prostate carcinoma), BPH1 (benign prostate hyperplasia), AsPC1 (pancreatic carcinoma), Ca127 (tongue carcinoma), A-431 (vulva carcinoma), Hec1A (endometrial carcinoma), Saos-2 (osteosarcoma), U87MG (glioblastoma), WM266-4 (melanoma), K562 (chronic myeloid leukemia), EOL1 (acute hypereosinophilic myeloid leukemia), CCRF-CEM and CCRF-CEM VCR1000 (acute lymphoblastic leukemia sensitive and resistant towards Vincristine). For quantification of cellular proliferation/living cells the Alamar Blue (Resazurin) cell viability assay is applied (O'Brien et al. Eur J Biochem 267, 5421-5426, 2000). In this assay Resazurin is reduced to the fluorescent resorufine by cellular dehydrogenase activity, correlating with viable, proliferating cells. The examples are dissolved as 20 mM solutions in dimethylsulfoxide (DMSO) and subsequently diluted in semi-logarithmic steps. Cell lines are seeded at respective density into 96 well flat bottom plates in a volume of 200 μl per well. 24 h after seeding 1 μl each of the compound dilutions are added into each well of the 96 well plate. Each compound dilution is tested as quadruplicates. Wells containing untreated control cells are filled with 200 μl DMEM medium containing 0.5% v:v DMSO. The cells are then incubated with the compounds for 72 h at 37° C. in a humidified atmosphere containing 5% carbon dioxide. To determine the viability of the cells, 20 μl of a Resazurin solution (Sigma; 90 mg/l) are added. After 4 h incubation at 37° C. the fluorescence is measured at an extinction of λ=544 nm and an emission of λ=590 nm. For the calculation of the cell viability the emission value from untreated cells is set as 100% viability and the emission rates of treated cells are set in relation to the values of untreated cells. Viabilities are expressed as % values. The corresponding IC50 values of the compounds for cytotoxic activity are determined from the concentration-effect curves by means of non-linear regression.
For determination of cell-cycle dependent cytotoxicity, the RKO exop21 cell system is applied (Schmidt et al. Oncogene 19: 2423-2429, 2000). Briefly, RKO cells with/without p21^waf1 expression (2×10^4 cells/well induced, 6×10^3 cells/well not induced) are treated with the compounds for 72 h and metabolic activity quantified as described before. The expression of p21^waf1 was induced by treatment with Pronasterone A, causing a complete proliferation arrest of RKO cells in the G1 and G2 phases of the cell division cycle.

[6] = system: fully transformed malignant cancer cell lines; assay: Anti-proliferative activity, selection of cell lines (Alamar Blue); type: cell-based; conditions: Homo sapiens, 72 h, mean over cell lines, read-out: Mean IC50 values as calculated for fully malignant cancer cell lines
Procedure: as §1
The anti-proliferative activity of compounds from examples 1, 2, 3, 12 and 150 is evaluated by using a broad selection of non-malignant cell lines and fully transformed malignant cancer cell lines.

[7] = read-out: EC50, induction of histone H3 hyperacetylation
[8] = read-out: −lg EC50, induction of histone H3 hyperacetylation

SMILES | EC50 [3, 7] [µM] | EC50 [3, 8] [µM] | concentration inducing arrest in G1, depletion of cells in the S-phase and reduction of cells in the G2/M-phase (A549 NSCLC cells [2]) | IC50 (A549 NSCLC cells [4]) [µM] | further results
Nc1ccccc1NC(=O)c1ccc(CNc2nccc(-c3cccnc3)n2)cc1 [MGCD0103] | – | – | – | – | IC50 (HDACs 4 to 8): > 20 µM; IC50 (HDAC11): 0.1 to 2 µM
O=C(CCCCCCC(=O)Nc1ccccc1)NO [SAHA, suberoylanilide hydroxamic acid] | – | – | – | – | share of analyzed genes whose expression was changed [1]: 22.1%

Continued, in another order:

EC50 [3, 7] [µM] | EC50 [3, 8] [µM] | SMILES | concentration inducing arrest in G1, depletion of cells in the S-phase and reduction of cells in the G2/M-phase (A549 NSCLC cells [2]) | IC50 (A549 NSCLC cells [4]) [µM] | further results
0.15 to 15 | 0.251 to 15.8 | Nc1ccccc1NC(=O)c1nc2c(s1)CN(C(=O)OCc1cccnc1)CC2 [Example 189, Pyridin-3-ylmethyl 2-[(2-aminophenyl)carbamoyl]-6,7-dihydro[1,3]thiazolo[5,4-c]pyridine-5(4H)-carboxylate] | around 3 μM | ≥ 0.2 | –
0.15 to 15 | 0.251 to 15.8 | Cc1ccc(OC(=O)N2CCc3nc(C(=O)Nc4ccccc4N)sc3C2)cc1 [Example 182, 4-methylphenyl 2-[(2-aminophenyl)carbamoyl]-6,7-dihydro[1,3]thiazolo[5,4-c]pyridine-5(4H)-carboxylate] | around 3 μM | ≥ 0.2 | –
0.15 to 15 | 0.251 to 15.8 | Cc1ccc(S(=O)(=O)N2CCc3nc(C(=O)Nc4ccccc4N)sc3C2)cc1 [Example 150, N-(2-aminophenyl)-5-[(4-methylphenyl)sulfonyl]-4,5,6,7-tetrahydro[1,3]-thiazolo[5,4-c]pyridine-2-carboxamide] | – | ≥ 0.2 | IC50 ([5]; RKO arrested, p21^waf1 expressed, read-out: RKO arrested (p21^waf1 expressed) IC50): 1.1 to 4.9 µM; IC50 ([5]; RKO proliferating, p21^waf1 not induced, read-out: RKO proliferating IC50): 1.1 to 4 µM; IC50 [6]: 2.4 to 5.4 µM
